In patent US7579366B2, “Epothilone derivatives and their synthesis and use” (The Scripps Research Institute, priority 1998, dated 2009):

How the values were obtained:
[1] = from C/C(=C\I)[C@@H](O)C/C=C(\CCC[C@H](C)[C@H](O[Si](C)(C)C(C)(C)C)[C@@H](C)C(=O)C(C)(C)[C@H](CC(=O)O)O[Si](C)(C)C(C)(C)C)COC(c1ccccc1)(c1ccccc1)c1ccccc1; ester bond; 2,4,6-trichlorobenzoyl chloride, Et3N, 4-DMAP (Yamaguchi); toluene; 4.66 mM; 75.0 °C; 2.5 h
PC-3M cells = experiment: Cell growth inhibition, PC-3M prostate cells; format: cell-based; conditions: Homo sapiens
MCF-7 cells = experiment: Cell growth inhibition, MCF-7 breast cells; format: cell-based; conditions: Homo sapiens, MCF7
[2] = target: T1, pig brain microtubuli protein (tubulin plus microtubuli-associated proteins) (Sus scrofa, UniProt P02554); experiment: Induction of tubulin polymerisation, pig brain microtubuli, compared with 25 μM epothilone B; format: biochemical; conditions: 5 μM test compound versus epothilone B at 25 μM (in %)
T1 construct: Microtubuli-protein is obtained from pig brain by two cycles of temperature dependent depolymerisation/polymerisation; from tissue; host or cells: pig brain
T1 sequence (P02554 whole entry): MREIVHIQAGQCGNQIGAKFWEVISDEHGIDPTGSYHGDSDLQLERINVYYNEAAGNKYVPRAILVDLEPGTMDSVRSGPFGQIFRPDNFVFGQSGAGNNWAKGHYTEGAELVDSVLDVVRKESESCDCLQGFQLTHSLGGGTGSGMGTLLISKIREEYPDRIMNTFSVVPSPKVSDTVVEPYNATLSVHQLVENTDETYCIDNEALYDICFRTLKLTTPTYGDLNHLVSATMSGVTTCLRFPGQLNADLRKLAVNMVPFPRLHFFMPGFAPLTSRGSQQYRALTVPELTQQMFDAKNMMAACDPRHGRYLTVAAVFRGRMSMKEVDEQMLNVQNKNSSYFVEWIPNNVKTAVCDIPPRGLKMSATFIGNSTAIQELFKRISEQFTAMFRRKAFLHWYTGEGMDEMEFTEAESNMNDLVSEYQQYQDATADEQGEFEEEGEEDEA
T1 sequence (P02550 whole entry partner): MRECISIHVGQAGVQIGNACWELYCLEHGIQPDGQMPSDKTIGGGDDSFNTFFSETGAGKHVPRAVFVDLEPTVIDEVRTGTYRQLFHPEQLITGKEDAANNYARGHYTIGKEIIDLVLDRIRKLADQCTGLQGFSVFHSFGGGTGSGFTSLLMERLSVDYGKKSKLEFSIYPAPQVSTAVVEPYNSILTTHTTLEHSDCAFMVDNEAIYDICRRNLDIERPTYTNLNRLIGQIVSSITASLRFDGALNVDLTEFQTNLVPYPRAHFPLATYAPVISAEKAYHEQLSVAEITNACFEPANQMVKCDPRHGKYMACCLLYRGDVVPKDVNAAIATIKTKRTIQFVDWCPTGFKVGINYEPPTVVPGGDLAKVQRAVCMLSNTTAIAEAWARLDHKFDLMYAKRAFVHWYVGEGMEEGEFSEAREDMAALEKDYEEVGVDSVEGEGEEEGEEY
Procedure: Stock solutions of the test compounds are made in DMSO and stored at −20° C. Microtubuli-protein is obtained from pig brain by two cycles of temperature dependent depolymerisation/polymerisation, as described (see Weingarten et al., Biochemistry 1974; 13: 5529-37). Working stock solutions of microtubule protein (meaning tubulin plus microtubuli-associated proteins) are stored at −70° C. The degree of the microtubuli protein polymerisation induced by a test compound is measured essentially as known from the literature (see Lin et al., Cancer Chem. Pharm. 1996; 38:136-140). In short, 5 μl stock solution of the test compound are pre-mixed in the twenty-fold of the desired final concentration with 45 μl of water at room temperature, and the mixture is then placed on ice. […] As indirect measure for the tubulin-polymerisation the protein concentration of the supernatant (which contains the rest of the un-polymerised, soluble microtubuli protein) is determined according to the Lowry method (DC Assay Kit, Bio-Rad Laboratories, Hercules, Calif.), and the optical density (OD) of the color reaction is determined at 750 nm with a spectrometer (SpectraMax 340, Molecular Devices, Sunnyvale, Calif.). […]

HCT-15 cells = experiment: Cell growth inhibition, HCT-15 colon cells; format: cell-based; conditions: Homo sapiens
DU145 cells = experiment: Cell growth inhibition, DU145 prostate cells; format: cell-based; conditions: Homo sapiens, DU-145
A549 cells = experiment: Cell growth inhibition, A549 lung cells; format: cell-based; conditions: Homo sapiens
HCT-116 cells = experiment: Cell growth inhibition, HCT-116 colon cells; format: cell-based; conditions: Homo sapiens
KB-31 cells = experiment: Cell growth inhibition, KB-31 epidermoid carcinoma cells; format: cell-based; conditions: Homo sapiens, KB 3-1
Procedure: (§1) Stock solutions of the test compound of formula I 10 mM) in DMSO are prepared and stored at −20° C. Human KB-31 and (multidrug-resistant, P-gp 170 overexpressing) KB-8511 epidermoid carcinoma cells are from Dr. M. Baker, Roswell Park Memorial Institute (Buffalo, N.Y., USA) (for description see also Akiyama et al., Somat. Cell. Mol. Genetics 11, 117-126 (1985) und Fojo A., et al., Cancer Res. 45, 3002-3007 (1985)—KB-31 und KB-8511 both are derivatives of the KB-cell line (American Type Culture Collection) and are human epidermoid carcinoma cells. KB-31 cells can be cultivated in mono-layers using calf serum (M.A. Bioproducts), L-glutamine (Flow), penicillin (50 Units/ml) und streptomycin (50 μg/ml (Flow); they then grow with a doubling rate of about 22 hours, and the relative efficiency of plating them out lies at about 60%. […] After washing again, the stain is eluted with 3% HCl and the optical density at 665 nm is measured with a SpectraMax 340 (Molecular Devices, Sunnyvale, Calif.). IC50-values are determined by mathematically fitting the data to curves using the SoftPro2.0 program (Molecular Devices, Sunnyvale, Calif.) and the formula [(OD treated)−(OD start)]/[(OD control)−(OD start)]×100. […]

MCF-7/ADR cells = experiment: Cell growth inhibition, MCF-7/ADR breast cells (multidrug resistant); format: cell-based; conditions: Homo sapiens, NCI/ADR-RES
KB-8511 cells = experiment: Cell growth inhibition, KB-8511 epidermoid carcinoma cells (P-gp overexpressing); format: cell-based; conditions: Homo sapiens
Procedure: as §1

Row | SMILES | ring closure, yield of all isomers [1] [%] | IC50 (PC-3M cells) [nM] | IC50 (MCF-7 cells) [nM] | Tubulin (%): induction of tubulin polymerisation [2] [%] | IC50 (HCT-15 cells) [nM] | IC50 (DU145 cells) [nM] | IC50 (A549 cells) [nM] | IC50 (HCT-116 cells) [nM] | IC50 (KB-31 cells) [nM] | IC50 (MCF-7/ADR cells) [nM] | IC50 (KB-8511 cells) [nM]
1 | C/C(=C\I)[C@@H]1C/C=C(/COC(c2ccccc2)(c2ccccc2)c2ccccc2)CCC[C@H](C)[C@H](O[Si](C)(C)C(C)(C)C)[C@@H](C)C(=O)C(C)(C)[C@@H](O[Si](C)(C)C(C)(C)C)CC(=O)O1 | 84 | – | – | – | – | – | – | – | – | – | –
2 | C/C(=C\c1ccc(C)cn1)[C@@H]1C[C@@H]2O[C@]2(C)CCCC(C)[C@H](O)C(C)C(=O)C(C)(C)C(O)CC(=O)O1 (some centres unmarked) [D (Example 1), 5-Methylpyridine Analogue D of Epothilone B] | – | 0.361 | 0.114 | 88.9 | 0.247 | 0.252 | 0.17 | 0.209 | 0.108 | 0.853 | 0.105
